ChEMBL document CHEMBL5143711, “Glenthmycins A-M: Macrocyclic Spirotetronate Polyketide Antibacterials from the Australian Pasture Plant-Derived Streptomyces sp. CMB-PB041” (J Nat Prod, 2022)

Experiments:
Staphylococcus aureus [1] = experiment: Antibacterial activity against methicillin-resistant Staphylococcus aureus ATCC 43300 incubated for 16 to 24 hrs by broth microdilution based spectrophotometric analysis; assay type: functional, organism-based
Enterococcus faecalis = experiment: Antibacterial activity against Enterococcus faecalis incubated for 16 to 24 hrs by broth microdilution based spectrophotometric analysis; assay type: functional, organism-based
Staphylococcus aureus [2] = experiment: Antibacterial activity against methicillin-resistant Staphylococcus aureus ATCC 33591 incubated for 16 to 24 hrs by broth microdilution based spectrophotometric analysis; assay type: functional, organism-based
Enterococcus faecium = experiment: Antibacterial activity against vancomycin-resistant Enterococcus faecium incubated for 16 to 24 hrs by broth microdilution based spectrophotometric analysis; assay type: functional, organism-based
Staphylococcus aureus [3] = experiment: Antibacterial activity against Staphylococcus aureus ATCC 25923 incubated for 16 to 24 hrs by broth microdilution based spectrophotometric analysis; assay type: functional, organism-based
Candida albicans = experiment: Antifungal activity against Candida albicans ATCC 10231 incubated for 16 to 24 hrs by broth microdilution based spectrophotometric analysis; assay type: functional, organism-based
[4] = test system: Mycobacterium tuberculosis; experiment: Antibacterial activity against Mycobacterium tuberculosis H37Ra ATCC 25177 incubated for 16 to 24 hrs by broth microdilution based spectrophotometric analysis; assay type: functional, organism-based
[5] = Cytotoxicity against human NCI-H460 cells and measured after 48 hrs by MTT assay; assay type: toxicity, cell-based
Escherichia coli = experiment: Antibacterial activity against Escherichia coli ATCC 11775 incubated for 16 to 24 hrs by broth microdilution based spectrophotometric analysis; assay type: functional, organism-based
[6] = Cytotoxicity against human SW-620 cells and measured after 48 hrs by MTT assay; assay type: toxicity, cell-based

| SMILES | IC50 (Staphylococcus aureus [1]) [µM] | IC50 (Enterococcus faecalis) [µM] | IC50 (Staphylococcus aureus [2]) [µM] | IC50 (Enterococcus faecium) [µM] | IC50 (Staphylococcus aureus [3]) [µM] | IC50 (Candida albicans) [µM] | IC50 [4] [µM] | IC50 at 48 h [5] [µM] | IC50 (Escherichia coli) [µM] | IC50 at 48 h [6] [µM] |
| --- | --- | --- | --- | --- | --- | --- | --- | --- | --- | --- |
| CCCCCCCCCCCC(=O)O[C@H]1CC[C@H](C)[C@@H]2[C@@H]1C=C(C)[C@H]1/C(C)=C/CC/C(C)=C/[C@]3(C)C=C(C)[C@H](C)C[C@]34OC(=O)C(=C4O)C(=O)[C@@]21C | > 30 | > 30 | > 30 | > 30 | > 30 | – | – | – | – | – |
| CC1=C[C@H]2[C@@H]([C@@H](C)CC[C@@H]2O[C@@H]2O[C@H](C)[C@@H](O)[C@@H](O)[C@H]2O)[C@]2(C)C(=O)C3=C(O)[C@@]4(C[C@@H](C)C(C(=O)O)=C[C@@]4(C)/C=C(\C)CC/C=C(\C)[C@H]12)OC3=O | > 30 | > 30 | > 30 | > 30 | > 30 | – | – | – | – | – |
| COc1cc(C)c(C(=O)O[C@H]2[C@@H](O)[C@@H](O)[C@H](O[C@H]3CC[C@H](C)[C@@H]4[C@@H]3C=C(C)[C@H]3/C(C)=C/CC/C(C)=C/[C@]5(C)C=C(C(=O)O)[C@H](C)C[C@]56OC(=O)C(=C6O)C(=O)[C@@]43C)O[C@@H]2C)c(O)c1 | > 30 | > 30 | > 30 | > 30 | > 30 | > 30 | > 30 | > 30 | > 30 | > 30 |
| COc1cc(C)c(C(=O)O[C@H]2[C@H](O[C@H]3CC[C@H](C)[C@@H]4[C@@H]3C=C(C)[C@H]3/C(C)=C/CC/C(C)=C/[C@]5(C)C=C(C(=O)O)[C@H](C)C[C@]56OC(=O)C(=C6O)C(=O)[C@@]43C)O[C@H](C)[C@@H](O)[C@H]2O)c(O)c1 | 15.2 | 13 | 10.2 | 7.3 | 10 | > 30 | > 30 | > 30 | > 30 | > 30 |
| CC(=O)O[C@H]1CC[C@H](C)[C@@H]2[C@@H]1C=C(C)[C@H]1/C(C)=C/CC/C(C)=C/[C@@H]3C=C(C(=O)O)[C@H](C)C[C@]34OC(=O)C(=C4O)C(=O)[C@@]21C | > 30 | > 30 | > 30 | > 30 | > 30 | – | – | – | – | – |
| CC(=O)O[C@H]1CC[C@H](C)[C@@H]2[C@@H]1C=C(C)[C@H]1/C(C)=C/CC/C(C)=C/[C@]3(C)C=C(C)[C@H](C)C[C@]34OC(=O)C(=C4O)C(=O)[C@@]21C | 1.1 | 3.7 | 0.9 | 10 | 1.2 | > 30 | > 30 | > 30 | > 30 | > 30 |
| CCCCC(=O)O[C@H]1CC[C@H](C)[C@@H]2[C@@H]1C=C(C)[C@H]1/C(C)=C/CC/C(C)=C/[C@]3(C)C=C(C)[C@H](C)C[C@]34OC(=O)C(=C4O)C(=O)[C@@]21C | 1.6 | 0.5 | 1.4 | 1.6 | 0.2 | – | – | – | – | – |
| CC(=O)O[C@H]1CC[C@H](C)[C@@H]2[C@@H]1C=C(C)[C@H]1/C(C)=C/CC/C(C)=C/[C@]3(C)C=C(C(=O)O)[C@H](C)C[C@]34OC(=O)C(=C4O)C(=O)[C@@]21C | > 30 | > 30 | > 30 | > 30 | > 30 | – | – | – | – | – |
| CC1=C[C@@]2(C)/C=C(\C)CC/C=C(\C)[C@@H]3C(C)=C[C@H]4[C@@H]([C@@H](C)CC[C@@H]4O)[C@]3(C)C(=O)C3=C(O)[C@@]2(C[C@H]1C)OC3=O | 3.8 | > 30 | 8.4 | > 30 | 16.4 | > 30 | > 30 | > 30 | > 30 | > 30 |
| COc1cc(C)c(C(=O)O[C@H]2[C@@H](O)[C@H](O[C@H]3CC[C@H](C)[C@@H]4[C@@H]3C=C(C)[C@H]3/C(C)=C/CC/C(C)=C/[C@]5(C)C=C(C(=O)O)[C@H](C)C[C@]56OC(=O)C(=C6O)C(=O)[C@@]43C)O[C@H](C)[C@H]2O)c(O)c1 | 7.3 | 4 | 12.2 | 13.1 | 23.2 | > 30 | > 30 | > 30 | > 30 | > 30 |
